The values that follow come from patent US9119858B2, “Compositions and methods for treating or preventing anthracycline induced cardiotoxicity” (Genesys Research Institute, priority 2012, dated 2015).

Each structure is given as a SMILES string. Where two headings read alike, the source gives them in different places.

Series [1] deals with doxorubicin injured mice. The settings on record: ten weeks after initiation of doxorubicin treatment. The protocol:
(§1) After the completion of doxorubicin treatment, mice were subsequently treated with either Lapatinib alone (100 mg/kg, oral gavage, daily) or Rapamycin alone (6 mg/kg, i.p., daily). Survival was monitored. Cardiac function was assessed by hemodynamic measurements.

In series [2] the test system is doxorubicin treated mice.
For series [3], the system named is doxorubicin injured mice. Briefly: Cardiac output by hemodynamic measurements in doxorubicin injured mice treated with Lapatinib or Rapamycin. Type of series: in vivo. The protocol: as §1
Series [4] deals with doxorubicin treated mice. The experiment in a line: Echocardiography of doxorubicin and doxorubicin+lapatinib treated mice. To be noted: FIG. 3.
Description: (§2) Female FVB/n mice between 10 and 12 weeks old were treated with doxorubicin (2 mg/kg) by intraperitoneal injection (i.p.) twice a week for 7 weeks. […] After completion of the doxorubicin treatment cycle, the mice were subsequently treated with various doses of lapatinib (25, 50, and 100 mg/kg, given by oral gavage, daily) or with vehicle control.
(§3) Cardiac function of the doxorubicin and doxorubicin+lapatinib treated mice was evaluated by echocardiography.
The subject of series [5] is doxorubicin treated mice. The experiment in a line: Hemodynamic measurements (dP/dtmax, dP/dtmin) in doxorubicin and doxorubicin+lapatinib treated mice. The settings on record: FIG. 4.
Description: as §2, §3
In series [6] the test system is doxorubicin+BEZ235 treated mice. Briefly: Echocardiography and heart/lung weight ratios in mice co-treated with doxorubicin, BEZ235 and lapatinib. To be noted: lapatinib co-treatment of doxorubicin+BEZ235 treated mice; FIG. 6.
Description: FVB/n female mice were treated with doxorubicin (2 mg/kg, i.p.) twice a week, PI3 kinase-mTOR inhibitor BEZ235 (35-50 mg/kg, oral, daily) and lapatinib (25, 50 or 100 mg/kg, oral, daily). Cardiac function was monitored by echocardiography.
The mark [7] stands for this setting: three weeks after initiation of lapatinib treatment, doxorubicin+lapatinib vs doxorubicin treated mice.
The mark [8] stands for this setting: doxorubicin+lapatinib treated vs control mice.
Where [9] appears, read: nine weeks after initiation of doxorubicin treatment, doxorubicin treated versus control mice.
The mark [10] stands for this setting: doxorubicin treated vs. control mice.

In turn, `CO[C@H]1C[C@@H]2CC[C@@H](C)[C@@](O)(O2)C(=O)C(=O)N2CCCC[C@H]2C(=O)O[C@H]([C@H](C)C[C@@H]2CC[C@@H](O)[C@H](OC)C2)CC(=O)[C@H](C)/C=C(\C)[C@@H](O)[C@@H](OC)C(=O)[C@H](C)C[C@H](C)/C=C/C=C/C=C/1C` [Rapamycin] had a survival in the series with doxorubicin injured mice [1] (Rapamycin 6 mg/kg i.p. daily after doxorubicin) of 63%.
For the molecule `CS(=O)(=O)CCNCc1ccc(-c2ccc3ncnc(Nc4ccc(OCc5cccc(F)c5)c(Cl)c4)c3c2)o1` [lapatinib, N-[3-chloro-4-[(3-fluorophenyl)methoxy]phenyl]-6-[5-[(2-methylsulfonylethylamino)methyl]-2-furyl]quinazolin-4-amine], in the series with doxorubicin treated mice [2] (64 days after initiation of doxorubicin treatment, lapatinib 25 mg/kg oral gavage daily after the doxorubicin cycle), the survival is 100%. In addition, the survival with doxorubicin treated mice [2] (64 days after initiation of doxorubicin treatment, lapatinib 50 mg/kg oral gavage daily after the doxorubicin cycle) came to 83%. In the series on doxorubicin treated mice [2] (64 days after initiation of doxorubicin treatment, lapatinib 100 mg/kg oral gavage daily after the doxorubicin cycle), this molecule gave a survival of 71%. Also, in the series on doxorubicin treated mice [2] (70 days after initiation of doxorubicin treatment, lapatinib 100 mg/kg oral gavage daily after the doxorubicin cycle), the survival stood at 55%. Besides, in the series on doxorubicin treated mice [2] (lapatinib 25, 50 and 100 mg/kg oral gavage daily vs vehicle control), the “survival of doxorubicin treated mice (FIG. 1)” value is “improved survival”. Besides, in the series on doxorubicin injured mice [1] (Lapatinib 100 mg/kg oral gavage daily after doxorubicin), the survival is recorded as 71%. The cardiac output entry with doxorubicin injured mice [3] (Lapatinib (100 mg/kg oral daily) treated doxorubicin injured mice vs. non-treated control mice) is listed as “No difference”. Further, in the series on doxorubicin treated mice [4] (setting [7]), the EF % result is “reversed these effects” and the ESV result is recorded as “reversed these effects”. Also, in the series on doxorubicin treated mice [5] (setting [8]), the dP/dtmax entry is listed as “not different” and the dP/dtmin result was “not different”. In series [6], the EF % entry was “reversed these effects”, the “end-diastolic volume (EDV)” value was “reversed these effects”, the “end-systolic volume (ESV)” value is “reversed these effects” and the “heart weight to body weight ratio (HW/BW)” value is “reversed these effects”. Besides, in series [6], the “lung to body weight ratio” value is “reversed these effects” and the “relative wall thickness (RWth)” value is listed as “reversed these effects”.
Turning to `COc1cccc2c1C(=O)c1c(O)c3c(c(O)c1C2=O)C[C@@](O)(C(=O)CO)C[C@@H]3O[C@H]1C[C@H](N)[C@H](O)[C@H](C)O1` [doxorubicin], the survival in the series on doxorubicin treated mice [2] (64 days after initiation of doxorubicin treatment, doxorubicin 2 mg/kg i.p. twice a week for 7 weeks, then vehicle control, female FVB/n mice) is 68%. This molecule came in with a survival in the series on doxorubicin treated mice [2] (70 days after initiation of doxorubicin treatment, doxorubicin 2 mg/kg i.p. twice a week for 7 weeks, then vehicle control) of 34%. The molecule also yielded a survival in the series with doxorubicin injured mice [1] (Solvent treated doxorubicin injured mice (doxorubicin 2 mg/kg i.p. twice a week for 7 weeks)) of 43%. Also, the cardiac output result with doxorubicin injured mice [3] (Solvent treated doxorubicin injured mice vs. non-treated control mice, ten weeks) is “significantly decreased”. In the series with doxorubicin treated mice [4] (setting [9]), the EF % entry is reported as “decreased” and the ESV entry is “significantly increased”. In addition, in the series on doxorubicin treated mice [5] (setting [10]), the dP/dtmax result is “significantly decreased” and the dP/dtmin result is recorded as “significantly decreased”.
